Results from patent publication US20240116985A1, “STAPLED PEPTIDES AND METHODS THEREOF” (priority 2020, published 2024).
Like-named read-outs stand apart in the source and are kept apart here.

Legend:
[1] = target: T1, full-length beta-Catenin (Uniprot ID P35222) (Homo sapiens, UniProt P35222); assay: Fluorescence polarization IC50 (beta-catenin / 5FAM-TCF4 10-53 competition); format: binding
T1 construct: 10 nM full-length beta-Catenin (Uniprot ID P35222)
T1 sequence (P35222 1-781): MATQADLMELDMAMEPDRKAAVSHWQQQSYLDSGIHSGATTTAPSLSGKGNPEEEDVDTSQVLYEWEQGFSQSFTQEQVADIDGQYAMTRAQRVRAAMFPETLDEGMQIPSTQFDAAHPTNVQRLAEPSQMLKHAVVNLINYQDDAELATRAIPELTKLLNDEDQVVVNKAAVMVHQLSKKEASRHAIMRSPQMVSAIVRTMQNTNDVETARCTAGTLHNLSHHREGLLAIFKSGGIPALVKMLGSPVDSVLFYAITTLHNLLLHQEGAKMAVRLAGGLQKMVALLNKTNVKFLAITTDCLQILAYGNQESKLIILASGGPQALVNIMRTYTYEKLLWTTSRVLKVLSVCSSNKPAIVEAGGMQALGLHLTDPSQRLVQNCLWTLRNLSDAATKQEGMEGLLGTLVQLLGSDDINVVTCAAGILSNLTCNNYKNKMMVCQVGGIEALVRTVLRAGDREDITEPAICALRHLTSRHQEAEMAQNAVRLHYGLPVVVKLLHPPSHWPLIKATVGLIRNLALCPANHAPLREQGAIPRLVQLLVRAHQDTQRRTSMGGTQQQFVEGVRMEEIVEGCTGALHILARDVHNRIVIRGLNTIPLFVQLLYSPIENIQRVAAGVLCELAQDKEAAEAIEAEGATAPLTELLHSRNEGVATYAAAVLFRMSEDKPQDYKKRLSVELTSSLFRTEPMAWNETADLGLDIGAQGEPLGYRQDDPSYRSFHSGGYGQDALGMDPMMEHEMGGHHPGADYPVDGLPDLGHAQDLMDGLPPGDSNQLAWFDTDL

[2] = CHI Log D procedure; format: physicochemical
[3] = fluorescence polarization, read-out: beta-Catenin FP IC50
[4] = Table E2-1, read-out: beta-Catenin FP IC50

Structure (SMILES) | CHI Log D ([2]; pH 7.4) | IC50 [1, 3] [nM] | chromatographic logD ([2]; pH 7.4, CHI Log D) | further results
CC[C@H](C)[C@@H]1NC(=O)[C@H](CC(=O)O)NC(=O)[C@]2(CC=CCCCC3(CCCC=CCCCCCC[C@@](C)(C(=O)N[C@@H](Cc4ccccc4)C(=O)N[C@@H](Cc4csc5ccccc45)C(=O)N[C@@H](CC(N)=O)C(N)=O)NC(=O)[C@H](CCC(N)=O)NC(=O)[C@H](Cc4ccccc4)NC(=O)[C@H](C)NC(=O)[C@H](C)NC(=O)[C@H](CCC(=O)O)NC(=O)[C@H](CC(=O)O)NC3=O)NC1=O)CCCN2C(C)=O (stereo partly drawn) [I-495, Ac-PL3-Asp-Ile-B5-Asp-Glu-Ala-Ala-Phe-Gln-S8-Phe-BztA-Asn-NH2] | – | 181 | 2.35 | –
CC[C@H](C)[C@@H]1NC(=O)[C@H](CC(=O)O)NC(=O)[C@]2(CC=CCCCC3(CCCC=CCCCCCC[C@@](C)(C(=O)N[C@@H](Cc4ccccc4)C(=O)N[C@@H](Cc4csc5ccccc45)C(=O)N[C@@H](CCC(N)=O)C(N)=O)NC(=O)[C@H](CCC(N)=O)NC(=O)[C@H](Cc4ccccc4)NC(=O)[C@H](CCCCNC(=O)CN=[N+]=[N-])NC(=O)[C@H](C)NC(=O)[C@H](CCC(=O)O)NC(=O)[C@H](CC(=O)O)NC3=O)NC1=O)CCCN2C(C)=O (stereo partly drawn) [I-593, Ac-PL3-Asp-Ile-B5-Asp-Glu-Ala-[AzAc]Lys-Phe-Gln-S8-Phe-BztA-Gln-NH2] | – | – | – | IC50 ([1]; FP EC50 (nM)): 68 nM; chromatographic logD ([2]; pH 7.4): 2.12
CC(=O)N1CCC[C@]12CC=CCCCC1(CCCC=CCCCCCC[C@@](C)(C(=O)N[C@@H](Cc3cccc(C)c3)C(=O)N[C@@H](Cc3csc4ccccc34)C(=O)N[C@@H](CCC(N)=O)C(N)=O)NC(=O)[C@H](C(C)C)NC(=O)[C@H](Cc3ccccc3)NC(=O)[C@H](C)NC(=O)[C@H](C)NC(=O)[C@H](CCC(=O)O)NC(=O)[C@H](CC(=O)O)NC1=O)NC(=O)[C@H](C)NC(=O)[C@H](CC(=O)O)NC2=O (stereo partly drawn) [I-395, Ac-PL3-Asp-Ala-B5-Asp-Glu-Ala-Ala-Phe-Val-S8-3MeF-BztA-Gln-NH2] | – | 5000 | 4.07 | –
CC[C@H](C)[C@@H]1NC(=O)C[C@H](C(=O)O)NC(=O)[C@]2(CC=CCCCC3(CCCC=CCCCCCC[C@@](C)(C(=O)N[C@@H](Cc4ccccc4)C(=O)N[C@@H](Cc4csc5ccccc45)C(=O)N[C@@H](CCC(N)=O)C(N)=O)NC(=O)[C@H](CCC(N)=O)NC(=O)[C@H](Cc4ccccc4)NC(=O)[C@H](C)NC(=O)[C@H](C)NC(=O)[C@H](CCC(=O)O)NC(=O)[C@H](CC(=O)O)NC3=O)NC1=O)CCCN2C(C)=O (stereo partly drawn) [I-669, Ac-PL3-isoDAsp-Ile-B5-Asp-Glu-Ala-Ala-Phe-Gln-S8-Phe-BztA-Gln-NH2] | 2.25 | 451 | – | IC50 ([1]; read-out: FP EC50): 451 nM
COc1ccccc1C[C@H](NC(=O)[C@]1(C)CCCCCCC=CCCCC2(CCCC=CC[C@]3(CCCN3C(C)=O)C(=O)N[C@@H](CC(=O)O)C(=O)N[C@@H](C)C(=O)N2)C(=O)N[C@@H](CC(=O)O)C(=O)N[C@@H](CCC(=O)O)C(=O)N[C@@H](C)C(=O)N[C@@H](C)C(=O)N[C@@H](Cc2ccccc2)C(=O)N[C@@H](CCC(N)=O)C(=O)N1)C(=O)N[C@@H](Cc1csc2ccccc12)C(=O)N[C@@H](CCC(N)=O)C(N)=O (stereo partly drawn) [I-526, Ac-PL3-Asp-Ala-B5-Asp-Glu-Ala-Ala-Phe-Gln-S8-2OMeF-BztA-Gln-NH2] | 2.049 | 56 | – | IC50 ([1]; read-out: FP EC50): 56 nM
CC(=O)N1CCC[C@]12CC=CCCCC1(CCCC=CCCCCCC[C@@](C)(C(=O)N[C@@H](Cc3cccc(F)c3)C(=O)N[C@@H](Cc3c[nH]c4ccccc34)C(=O)N[C@@H](CCC(N)=O)C(N)=O)NC(=O)[C@H](C(C)C)NC(=O)[C@H](Cc3ccccc3)NC(=O)[C@H](C)NC(=O)[C@H](C)NC(=O)[C@H](CC(=O)O)NC(=O)[C@H](CC(=O)O)NC1=O)NC(=O)[C@H](C)NC(=O)[C@H](CC(=O)O)NC2=O (stereo partly drawn) [I-260, Ac-PL3-Asp-Ala-B5-Asp-Asp-Ala-Ala-Phe-Val-S8-3FF-Trp-Gln-NH2] | – | – | 2.06 | IC50 [1, 4]: 5000 nM
COCCOCCC(=O)NCCCC[C@@H]1NC(=O)[C@H](C)NC(=O)[C@H](CC(=O)O)NC(=O)[C@H](CC(=O)O)NC(=O)C2(CCCC=CCCCOC(=O)N3CC[C@@](C(=O)N[C@@H](Cc4ccsc4)C(=O)N[C@@H](Cc4csc5ccccc45)C(=O)N[C@@H](CCC(N)=O)C(N)=O)(C3)NC(=O)[C@H](CC(N)=O)NC(=O)[C@H](Cc3ccccc3)NC1=O)CCCC=CC[C@]1(CCCN1C(C)=O)C(=O)N[C@@H](CC(=O)O)C(=O)N[C@@H](CC(C)(C)C)C(=O)N2 (stereo partly drawn) [I-893, Ac-PL3-Asp-Npg-B5-Asp-Asp-Ala-[mPEG2]Lys-Phe-Asn-PyrS2-3Thi-BztA-Gln-NH2] | 1.759 | – | – | –

More lines, main results first:

CHI Log D ([2]; pH 7.4) | IC50 [1, 3] [nM] | chromatographic logD ([2]; pH 7.4, CHI Log D) | Structure (SMILES) | further results
2.147 | – | – | CC(=O)N1CCC[C@]12CC=CCCCC1(CCCC=CCCCOC(=O)N3CC[C@@](C(=O)N[C@@H](Cc4ccccc4Cl)C(=O)N[C@@H](Cc4csc5ccccc45)C(=O)N[C@@H](CO)C(N)=O)(C3)NC(=O)[C@H](CC(C)C)NC(=O)[C@H](Cc3ccccc3)NC(=O)[C@H](C)NC(=O)[C@H](C)NC(=O)[C@H](CCC(=O)O)NC(=O)[C@H](CC(=O)O)NC1=O)NC(=O)[C@H](CC(C)(C)C)NC(=O)[C@H](CC(=O)O)NC2=O (stereo partly drawn) [I-1067, Ac-PL3-Asp-Npg-B5-Asp-Glu-Ala-Ala-Phe-Leu-PyrS2-2C1F-BztA-Ser-NH2] | IC50 ([1]; fluorescence polarization, beta-catenin, read-out: FP EC50): 517 nM; IC50 ([1]; read-out: beta-Catenin FP IC50): 517 nM
– | – | 2.17 | CC(=O)N1CCC[C@]12CC=CCCCC1(CCCC=CCCCCCC[C@@](C)(C(=O)N[C@@H](Cc3ccccc3)C(=O)N[C@@H](Cc3cccc4ccc(F)cc34)C(=O)N[C@@H](CCC(N)=O)C(N)=O)NC(=O)[C@H](C(C)C)NC(=O)[C@H](Cc3ccccc3)NC(=O)[C@H](C)NC(=O)[C@H](C)NC(=O)[C@H](CC(=O)O)NC(=O)[C@H](CC(=O)O)NC1=O)NC(=O)[C@H](C)NC(=O)[C@H](CC(=O)O)NC2=O (stereo partly drawn) [I-368, Ac-PL3-Asp-Ala-B5-Asp-Asp-Ala-Ala-Phe-Val-S8-Phe-7F1NapA-Gln-NH2] | IC50 [1, 4]: 5000 nM
2.16 | – | – | CC[C@H](C)[C@@H]1NC(=O)C[C@H](CC(=O)O)NC(=O)[C@]2(CC=CCCCC3(CCCC=CCCCCCC[C@@](C)(C(=O)N[C@@H](Cc4ccccc4)C(=O)N[C@@H](Cc4csc5ccccc45)C(=O)N[C@@H](CCC(N)=O)C(N)=O)NC(=O)[C@H](CCC(N)=O)NC(=O)[C@H](Cc4ccccc4)NC(=O)[C@H](C)NC(=O)[C@H](C)NC(=O)[C@H](CCC(=O)O)NC(=O)[C@H](CC(=O)O)NC3=O)NC1=O)CCCN2C(C)=O (stereo partly drawn) [I-670, Ac-PL3-RbGlu-Ile-B5-Asp-Glu-Ala-Ala-Phe-Gln-S8-Phe-BztA-Gln-NH2] | –
– | – | 1.81 | CCCC[C@@H]1NC(=O)[C@H](CC(=O)O)NC(=O)C2(CCCC=CCCCCCC[C@@](C)(C(=O)N[C@@H](Cc3ccccc3)C(=O)N[C@@H](Cc3c[nH]c4ccccc34)C(=O)N[C@@H](CCC(N)=O)C(N)=O)NC(=O)[C@H](C(C)C)NC(=O)[C@H](Cc3ccccc3)NC(=O)[C@H](C)NC(=O)[C@H](C)NC1=O)CCCC=CC[C@]1(CCCN1C(C)=O)C(=O)N[C@@H](CC(=O)O)C(=O)N[C@@H](C)C(=O)N2 (single isomer, unassigned) [I-138, Ac-PL3-Asp-Ala-B5-Asp-nLeu-Ala-Ala-Phe-Val-S8-Phe-Trp-Gln-NH2] | –
– | – | 1.15 | CC(=O)N[C@@H](Cc1ccccc1)C(=O)N[C@@H](CC(=O)O)C(=O)N[C@@H](C)C(=O)N[C@]1(C)CCCCCCC=CCOC(=O)N2CC[C@@](C(=O)N[C@@H](Cc3ccccc3)C(=O)N[C@@H](Cc3c[nH]c4ccccc34)C(=O)N[C@@H](CCC(N)=O)C(N)=O)(C2)NC(=O)[C@H](C(C)C)NC(=O)[C@H](Cc2cccc(C(N)=O)c2)NC(=O)[C@H](C)NC(=O)[C@H](C)NC(=O)[C@H](CC(=O)O)NC(=O)[C@H](CC(=O)O)NC1=O (single isomer, unassigned) [I-108, Ac-Phe-Asp-Ala-R8-Asp-Asp-Ala-Ala-3CBMF-Val-PyrS-Phe-Trp-Gln-NH2] | –
